# According to patent publication US20200115353A1, “NEW COMPOUNDS INHIBITORS OF THE YAP/TAZ-TEAD INTERACTION AND THEIR USE IN THE TREATMENT OF MALIGNANT MESOTHELIOMA” (INVENTIVA, priority 2017, published 2020):
# Tested on: not given
# Experiment: not given
# Settings: not given
row,Compound,melting point [°C]
1,"CN(/N=C/c1cnc(N2CCOCC2)s1)C1=NS(=O)(=O)c2ccccc21 [Ex 7, N-methyl-N-[(E)-(2-morpholinothiazol-5-yl)methyleneamino]-1,1-dioxo-1,2-benzothiazol-3-amine]",281 to 300
2,"CN(/N=C/c1ccc(F)c(Cl)n1)C1=NS(=O)(=O)c2ccccc21 [Ex 37, N-[(E)-(6-chloro-5-fluoro-2-pyridyl)methyleneamino]-N-methyl-1,1-dioxo-1,2-benzothiazol-3-amine]",219 to 221
3,"CN(/N=C/c1ccc(F)c(OC(F)(F)F)c1)C1=NS(=O)(=O)c2ccccc21 [Ex 78, N-[(E)-[4-fluoro-3-(trifluoromethoxy)phenyl]methyleneamino]-N-methyl-1,1-dioxo-1,2-benzothiazol-3-amine]",230 to 280
4,"CN(/N=C/c1cnc(N2CCC2)s1)C1=NS(=O)(=O)c2ccccc21 [Ex 61, N-[(E)-[2-(azetidin-1-yl)thiazol-5-yl]methyleneamino]-N-methyl-1,1-dioxo-1,2-benzothiazol-3-amine]",256 to 258
5,"CN(/N=C/c1ccc(N2CCOCC2)cc1)C1=NS(=O)(=O)c2ccccc21 [Ex 3, N-methyl-N-[(E)-(4-morpholinophenyl)methyleneamino]-1,1-dioxo-1,2-benzothiazol-3-amine]",258 to 261
6,"CCN(/N=C/c1ccc2c(c1)C(C)(C)NC2=O)C1=NS(=O)(=O)c2ccccc21 [Ex 85, 5-[(E)-[(1,1-dioxo-1,2-benzothiazol-3-yl)-ethyl-hydrazono]methyl]-3,3-dimethyl-isoindolin-1-one]",289 to 291
7,"CC1NC(=O)c2ccc(/C=N/N(C)C3=NS(=O)(=O)c4ccccc43)cc21 (centres unmarked) [Ex 31, 5-[(E)-[(1,1-dioxo-1,2-benzothiazol-3-yl)-methyl-hydrazono]methyl]-3-methyl-isoindolin-1-one]",> 298
8,"COc1cc(/C=N/N(CC(C)(C)CO)C2=NS(=O)(=O)c3ccccc32)ccc1F [Ex 108, 3-[(1,1-dioxo-1,2-benzothiazol-3-yl)-[(E)-(4-fluoro-3-methoxy-phenyl)methyleneamino]amino]-2,2-dimethyl-propan-1-ol]",207 to 208
9,"CNC(=O)Cc1ccc(/C=N/N(C)C2=NS(=O)(=O)c3ccccc32)cc1OC [Ex 20, 2-[4-[(E)-[(1,1-dioxo-1,2-benzothiazol-3-yl)-methyl-hydrazono]methyl]-2-methoxy-phenyl]-N-methyl-acetamide]",228 to 231
10,"CN(/N=C/c1ccc2c(c1)C(C)(C)NC2=O)C1=NS(=O)(=O)c2ccccc21 [Ex 32, 5-[(E)-[(1,1-dioxo-1,2-benzothiazol-3-yl)-methyl-hydrazono]methyl]-3,3-dimethyl-isoindolin-1-one]",> 295

# Target: T1, YAP-TEAD interaction (full length human TEAD1-Gal4 fusion, full length YAP mutant S127A, S397A) (UniProt P04386+P28347)
# T1 construct: The TEAD1 construct was prepared by cloning the full length human TEAD1 cDNA; expressed in transfected cells; host or cells: HEK293 GripTite 293 MSR (Invitrogen R795-07), transiently transfected with pSG5_CMV plasmids
# T1 sequence (P04386+P28347 fused, stated change not applied): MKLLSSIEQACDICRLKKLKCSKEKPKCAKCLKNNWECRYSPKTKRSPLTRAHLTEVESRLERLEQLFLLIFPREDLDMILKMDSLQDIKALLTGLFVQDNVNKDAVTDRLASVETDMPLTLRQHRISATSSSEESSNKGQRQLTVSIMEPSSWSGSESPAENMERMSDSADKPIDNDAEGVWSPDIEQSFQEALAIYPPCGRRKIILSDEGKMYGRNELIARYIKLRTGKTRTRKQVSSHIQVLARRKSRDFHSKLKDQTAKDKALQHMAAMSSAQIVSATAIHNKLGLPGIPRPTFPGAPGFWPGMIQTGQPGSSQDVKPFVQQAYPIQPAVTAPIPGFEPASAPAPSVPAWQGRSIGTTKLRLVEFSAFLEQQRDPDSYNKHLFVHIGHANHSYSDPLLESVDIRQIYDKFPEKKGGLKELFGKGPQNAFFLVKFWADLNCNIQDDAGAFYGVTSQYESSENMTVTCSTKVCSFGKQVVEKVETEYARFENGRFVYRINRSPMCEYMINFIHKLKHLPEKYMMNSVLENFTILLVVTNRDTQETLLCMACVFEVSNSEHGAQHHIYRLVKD
# Experiment: Cell-based TEAD-GAL4 transactivation assay (luciferase reporter, HEK293)
# Settings: HEK293 cells, compounds 0.1 μM to 30 μM, 24 h, concentration that inhibited the luciferase activity by 50%
# Method: To identify inhibitors of YAP-TEAD interaction, a transient transactivation assays was carried out into HEK293 cell line (HEK293 GripTite™ 293 MSR (Invitrogen R795-07)) using plasmids containing the full length TEAD1 sequences, the full length YAP mutant (S127A, S397A) and a luciferase gene reporter. All expression constructs were performed into pSG5 backbone plasmid in which the SV40 promoter was replaced by the CMV promoter. The TEAD1 construct was prepared by cloning the full length human TEAD1 cDNA in fusion with the Gal4 DNA Binding Domain (AA 1-148) into pSG5_CMV to create the TEAD1(FL)_hum_pSG5Gal4_CMV. The full length YAP mutant (S127A, S397A) was also cloned into pSG_5 CMV to create the YAP(FL)_hum_pSG5_[…]. The reporter plasmid GAL4(5×RE)_[…]_pGL3-Basic contains 5 copies of the GAL4 responsive element (5′-TCGGAGGACAGTACTCC-3′) upstream of the thymidine kinase (TK) promoter (−105/+56) inserted in a pGL3-Basic vector. To evaluate the selectivity of our compounds in blocking the YAP-TEAD interaction, a counter-screening protein-protein interaction transactivation assays was also established. Briefly, two other expression plasmids, the pBD-P53 which express the P53 (AA 72-390) in fusion with Gal4 and the pAD-SV40T which express the SV40 large T antigen (AA 84-708,AgT), were created. HEK293 cells were seeded at 5×10^4 cells/well in 96 well plates (assay plates) in DMEM medium containing 4.5 g/L D-glucose, 10% high inactivated (HI) fetal bovine serum 1% Glutamax, 1% non-essential amino acid and 1% sodium pyruvate and 0.5% penicillin/streptomycin 37° C. in a humidified atmosphere of 8% CO2. After 24 h, transfections are performed using Jet-PEI as transfectant (101B-010 Polyplus Transfection), according to the instructions of the manufacturer (N/P=10) and a ratio YAP/TEAD=10 (per well: 50 ng of YAP(FL), 5 ng of TEAD(FL) and 50 ng of reporter plasmid). Six hours after cell transfection, the plates (‘assay plate’) were washed with 100 μl PBS per well and cell were treated with compounds in semi-log from 0.1 μM to 30 μM or DMSO 0.5% as control in DMEM 4.5 g/L D-Glucose without phenol red, 0.3% BSA, 1% glutamax, 1% NEAA, 1% sodium pyruvate. Twenty-four hours later, the luciferase activity was determined after addition of 100 μl of Steady Glo™ luciferase assay system (Promega E2550) according to the manufacturer's directions. Luciferase activity in cell extracts is measured by reading luminescence using the Envision device.
# The cellular response was determined by fitting the concentration response curves using a 3-parameter curve fit equation and determining the concentration that inhibited the luciferase activity by 50%.
row,Compound,IC50 [µM]
1,"COc1cc(/C=N/N(C)C2=NS(=O)(=O)c3cc(B4OCC(C)(C)CO4)ccc32)ccc1F [Ex 59, 6-(5,5-dimethyl-1,3,2-dioxaborinan-2-yl)-N-[(E)-(4-fluoro-3-methoxy-phenyl)methyleneamino]-N-methyl-1,1-dioxo-1,2-benzothiazol-3-amine]",3.55
2,"COc1cc(C2=NN(C3=NS(=O)(=O)c4cc(B(O)O)ccc43)C(C)CC2)ccc1F (centres unmarked) [Ex 109, [3-[6-(4-fluoro-3-methoxy-phenyl)-3-methyl-4,5-dihydro-3H-pyridazin-2-yl]-1,1-dioxo-1,2-benzothiazol-6-yl]boronic acid]",0.7
3,"COc1cc(C2=NN(C3=NS(=O)(=O)c4ccccc43)CC(C)(C)C2)ccc1F [Ex 110, 3-[6-(4-fluoro-3-methoxy-phenyl)-4,4-dimethyl-3,5-dihydropyridazin-2-yl]-1,2-benzothiazole 1,1-dioxide]",3.23
4,"3,3-diethyl-5-[(E)-[isobutyl-(5-methoxy-1,1-dioxo-1,2-benzothiazol-3-yl)hydrazono]methyl]indolin-2-one [Ex 101]",5.29
5,"CN(/N=C/c1cnc(-c2ccccc2)s1)C1=NS(=O)(=O)c2ccccc21 [Ex 8, N-methyl-1,1-dioxo-N-[(E)-(2-phenylthiazol-5-yl)methyleneamino]-1,2-benzothiazol-3-amine]",5.19
6,"COc1cc(/C=N/N(CC(C)C)C2=NS(=O)(=O)c3ccc(B(O)O)cc32)ccc1F [Ex 94, [3-[[(E)-(4-fluoro-3-methoxy-phenyl)methyleneamino]-isobutyl-amino]-1,1-dioxo-1,2-benzothiazol-5-yl]boronic acid]",3.31
7,"CSc1cc(/C=N/N(CC(C)C)C2=NS(=O)(=O)c3ccccc32)ccc1F [Ex 107, N-[(E)-(4-fluoro-3-methylsulfanyl-phenyl)methyleneamino]-N-isobutyl-1,1-dioxo-1,2-benzothiazol-3-amine]",2.14
8,"COc1cc(/C=N/N(C)C2=NS(=O)(=O)c3ccc(OCCN(C)C)cc32)ccc1F [Ex 57, 5-[2-(dimethylamino)ethoxy]-N-[(E)-(4-fluoro-3-methoxy-phenyl)methyleneamino]-N-methyl-1,1-dioxo-1,2-benzothiazol-3-amine]",0.53
9,"CCOCCN(/N=C/c1ccc(F)c(OC)c1)C1=NS(=O)(=O)c2ccccc21 [Ex 43, N-(2-ethoxyethyl)-N-[(E)-(4-fluoro-3-methoxy-phenyl)methyleneamino]-1,1-dioxo-1,2-benzothiazol-3-amine]",2.78
10,"CC(C)Oc1cc(/C=N/N(C)C2=NS(=O)(=O)c3ccccc32)ccc1F [Ex 13, N-[(E)-(4-fluoro-3-isopropoxy-phenyl)methyleneamino]-N-methyl-1,1-dioxo-1,2-benzothiazol-3-amine]",3.35
11,"CCC1(CC)C(=O)Nc2ccc(/C=N/N(CC(C)C)C3=NS(=O)(=O)c4cc(OC)ccc43)cc21 [Ex 98, 3,3-diethyl-5-[(E)-[isobutyl-(6-methoxy-1,1-dioxo-1,2-benzothiazol-3-yl) hydrazono]methyl]indolin-2-one]",3.92
12,"CNC(=O)COc1ccc2c(c1)C(N(CC(C)C)/N=C/c1ccc(F)c(OC)c1)=NS2(=O)=O [Ex 105, 2-[[3-[[(E)-(4-fluoro-3-methoxy-phenyl)methyleneamino]-isobutyl-amino]-1,1-dioxo-1,2-benzothiazol-5-yl]oxy]-N-methyl-acetamide]",4.94
13,"CN(/N=C/c1cnc(N2CCCC2)s1)C1=NS(=O)(=O)c2ccccc21 [Ex 6, N-methyl-1,1-dioxo-N-[(E)-(2-pyrrolidin-1-ylthiazol-5-yl)methyleneamino]-1,2-benzothiazol-3-amine]",1.07
14,"COc1cc(/C=N/N(CC(C)C)C2=NS(=O)(=O)c3ccccc32)ccc1F [Ex 40, N-[(E)-(4-fluoro-3-methoxy-phenyl)methyleneamino]-N-isobutyl-1,1-dioxo-1,2-benzothiazol-3-amine]",5.33
15,"CCC1(CC)C(=O)Nc2ccc(/C=N/N(CC(C)C)C3=NS(=O)(=O)c4cc(OC(C)C)ccc43)cc21 [Ex 99, 3,3-diethyl-5-[(E)-[isobutyl-(6-isopropoxy-1,1-dioxo-1,2-benzothiazol-3-yl)hydrazono]methyl]indolin-2-one]",4.14
16,"COc1cc(/C=N/N(CC(C)C)C2=NS(=O)(=O)c3cc(OCB4OC(=O)CN(C)CC(=O)O4)ccc32)ccc1F [Ex 106, 2-[[3-[[(E)-(4-fluoro-3-methoxy-phenyl)methyleneamino]-isobutyl-amino]-1,1-dioxo-1,2-benzothiazol-6-yl]oxymethyl]-6-methyl-1,3,6,2-dioxaza-borocane-4,8-dione]",0.94
17,"CCC1(CC)C(=O)Nc2ccc(/C=N/N(CC(C)C)C3=NS(=O)(=O)c4cc(O)ccc43)cc21 [Ex 96, 3,3-diethyl-5-[(E)-[(6-hydroxy-1,1-dioxo-1,2-benzothiazol-3-yl)-isobutyl-hydrazono]methyl]indolin-2-one]",10.4
18,"COc1cc(/C=N/N(C)C2=NS(=O)(=O)c3cc(N)ccc32)ccc1F [Ex 49, N3-[(E)-(4-fluoro-3-methoxy-phenyl)methyleneamino]-N3-methyl-1,1-dioxo-1,2-benzothiazole-3,6-diamine]",3.11

# Same assay, conditions: HEK293 cells, compounds 0.1 μM to 30 μM, 24 h, luciferase activity
row,Compound,"Max Act. (%), TEAD-GAL4 Transactivation activity [%]"
1,"3,3-diethyl-5-[(E)-[isobutyl-(5-methoxy-1,1-dioxo-1,2-benzothiazol-3-yl)hydrazono]methyl]indolin-2-one [Ex 101]",90
